Assay results from the CheMixHub viscosity set.
Where “and” joins values, the source holds several entries; their conditions need not be identical. Equal values may be shown once.

C1COCO1
viscosity
Details	298.15 K	303.15 K	308.15 K	313.15 K	318.15 K	323.15 K
101 kPa	0.587 mPa·s	0.62 mPa·s	0.58 mPa·s and 0.513 mPa·s and 0.5128 mPa·s	0.55 mPa·s	0.53 mPa·s and 0.458 mPa·s and 0.458 mPa·s	0.4183 mPa·s and 0.51 mPa·s
101.3 kPa	0.5919 mPa·s	–	–	0.5 mPa·s	–	–

CCC(O)CC
viscosity [mPa·s]
Details	293.15 K	298.15 K	303.15 K	308.15 K	313.15 K	318.15 K	323.15 K
101 kPa	4.646	4.81	3.506	2.773	2.23	1.895	1.528
101.33 kPa	–	–	3.852	–	2.272	–	1.543

C#CCO
viscosity [mPa·s]
Details	303.15 K	308.15 K	313.15 K	318.15 K	323.15 K
101 kPa	1.345	1.214	1.103	1.01	0.9277
101.32 kPa	–	1.221	1.12	1.017	0.9331

Cc1cccc(C)n1
viscosity
Details	101 kPa	101.33 kPa
293.15 K	–	0.8373 mPa·s
295.15 K	0.929 mPa·s	–
298.15 K	0.8777 mPa·s	0.7813 mPa·s
298.2 K	0.806 mPa·s	–
300.12 K	–	0.847 mPa·s
303 K	0.7635 mPa·s	–
303.12 K	–	0.833 mPa·s
303.24 K	0.753 mPa·s	–
306.99 K	–	0.774 mPa·s
308.15 K	–	0.6861 mPa·s
308.26 K	0.708 mPa·s	–
313 K	0.6811 mPa·s and 0.6687 mPa·s	–
313.34 K	0.663 mPa·s	–
318.15 K	–	0.6032 mPa·s
318.39 K	0.627 mPa·s	–
323 K	0.6095 mPa·s and 0.5945 mPa·s	–

CCCOCCC
Details	viscosity [mPa·s]
298.15 K, 101.33 kPa	0.4024

ClC(Cl)C(Cl)(Cl)Cl
101 kPa
Details	viscosity [mPa·s]
298.15 K	2.26
303.15 K	1.971

CN1CCCCCC1=O
Details	viscosity [mPa·s]
298.16 K, 101 kPa	4.92

CCC(C)C(C)C (stereo unspecified)
Details	viscosity [mPa·s]
298.15 K, 101.33 kPa	0.3898

CN(C)P(=O)(N(C)C)N(C)C
Details	viscosity [mPa·s]
303.15 K, 101.3 kPa	2.928

CCCOCC(C)O (stereo unspecified)
viscosity [mPa·s]
Details	298.15 K	303.15 K	308.15 K	318.15 K
100 kPa	2.451	2.094	1.885	–
101.33 kPa	2.389	–	1.822	1.416

CC(=O)c1ccccc1
viscosity
Details	303.15 K	308.15 K	313.15 K	323.15 K
100 kPa	1.455 mPa·s	1.415 mPa·s	1.233 mPa·s and 1.269 mPa·s	1.061 mPa·s
101 kPa	1.533 mPa·s (2×) and 1.533 mPa·s and 1.533 mPa·s	–	1.266 mPa·s and 1.266 mPa·s and 1.269 mPa·s	1.051 mPa·s
101.3 kPa	–	–	1.317 mPa·s	1.285 mPa·s

CC[NH2+]CC.O=S(=O)([O-])O
101 kPa
Details	viscosity [mPa·s]
303.15 K	28.9
308.15 K	24.6
313.15 K	21.9

CC(C)OC(C)C
viscosity
Details	293.15 K	298.15 K	303.15 K	308.15 K	313.15 K	318.15 K	323.15 K
100 kPa	0.332 mPa·s	0.319 mPa·s	0.304 mPa·s	0.29 mPa·s and 0.29 mPa·s	0.274 mPa·s	0.261 mPa·s	0.246 mPa·s
101 kPa	–	0.315 mPa·s	–	–	–	–	–
101.33 kPa	0.34 mPa·s	0.322 mPa·s	0.31 mPa·s	0.293 mPa·s	0.279 mPa·s	–	–
